In patent US5242945A, “Tetronic and thiotetronic acid derivatives as phospholipase A2 inhibitors” (American Home Products Corporation, priority 1991, dated 1993):

Tested on: lipoxygenase and/or cyclooxygenase pathways of arachidonic acid metabolism
Assay: in vivo murine zymosan peritonitis assay
Design: species or system mouse (CD-1)
Conditions: 100 mg/kg p.o.; negative values denote potentiation
Description: The compounds of the invention are evaluated for their ability to inhibit the lipoxygenase and/or cyclooxygenase pathways of arachidonic acid metabolism in the in vivo murine zymosan peritonitis assay.
Male CD-1 mice (8 weeks old) are placed in plastic boxes in groups of six. Animals are injected with 1 mL i.p. of either 1% zymosan in pyrogen free 0.9% saline or saline (unstimulated control). Compounds are dosed orally 1 hour prior to zymosan injection. Twenty minutes after zymosan injection, the mice are asphyxiated by CO2 inhalation and the peritoneal cavity is lavaged with 2 mL ice cold Hanks Balanced Salt Solution (HBSS) without CaCl2, MgSO4. 7H2 O and MgCl2.6H2 O. Peritoneal lavage fluid from each mouse is removed by syringe and placed in 5 mL plastic test tubes put on ice and volume is noted. Preparation of samples for evaluation by ELISA is as follows: Samples are centrifuged at 800 xg for 15 minutes; 1 mL of the supernatant is added to 8 mL ice cold methanol and kept at -70° C. overnight to precipitate protein; and samples are then centrifuged at 800 xg for 15 minutes, followed by a drying procedure in a Savant speed vac concentrator. The samples are reconstituted with 1 mL ice cold ELISA buffer and stored at -70° C. until assayed. The assay for eicosanoids (LTC4 and 6-keto-PGF1α) is performed according to conventional ELISA procedures.
Compounds to be tested orally are suspended in 0.5% Tween 80. Compounds to be tested intraperitoneally are suspended in 0.5% methylcellulose in 0.9% saline.
The total metabolite level in lavage fluid/mouse is calculated and the significance is determined by a one-way analysis of variance with LSD comparisons to control (p≤0.05). Drug effects are expressed as a percent change from control values.

CCCCCCCCCC(=O)C1=C(O)COC1=O [Example 1, 4-Hydroxy-3-(1-oxodecyl)-2(5H)-furanone]
% Inhibition 6-keto-PGF: -58%
% Inhibition LTC4: -58%
